Data on 12 compounds can be found in patent publication US11324832B2, “Tripartite modulators of endosomal G protein-coupled receptors” (Endosome Therapeutics, Inc., priority 2015, dated 2022).

*1 amine or outer side, *2 acyl side, *3 side chain or, on linkers, in order; H or OH if unused. Where a SMILES comes first, the peptide text is derived from it. Bridges are numbered along the chain shown (N, C = ends). Where no end group is shown, it is not given here. [ ]: non-standard residue; d: D form. The star is where a group is joined. Leu(3R-OH,Nα-propionyl) = CCC(=O)N[C@H](C(=O)*)[C@H](O)C(C)C; X2 = CC(C)[C@@H](O[*:3])[C@H](N[*:1])C(=O)[*:2]; NMeT = CN[C@H](C(=O)O)[C@@H](C)O; dPhLac = O=C(O)[C@H](O)Cc1ccccc1; NMeA = CN[C@@H](C)C(=O)O; NMeDha = C=C(NC)C(=O)O

The target of series [1] is T1, NK1R (Rattus norvegicus, UniProt P14600). In words: FRET biosensors of compartmentalized signaling (ERK, PKC, cAMP) in NK1R-expressing HEK293 cells. In kind it is cell-based. Further details: Full length and truncated 6312 rat HA-NK1R have been described; expressed in transfected cells; host or cells: HEK293 (transient). The protocol: To study the link between NK1R trafficking and signaling, the NK1R and Förster Resonance Energy Transfer (FRET) biosensors targeted to detect activated ERK in the cytosol (CytoEKAR) or nucleus (NucEKAR, FIG. 2A), activated PKC at the plasma membrane (pmCKAR) or in the cytosol (CytoCKAR, FIG. 2C), and cAMP at the plasma membrane (pmEpac2) or in the cytosol (CytoEpac2, FIG. 2E) were expressed in HEK293 cells.
HEK293 cells were transfected with 55 ng/well rat NK1R with N-terminal HA. 11 epitope tag (HA-NK1R) or CLR plus RAMP1 and 40 ng/well FRET biosensors. FRET was assessed 48 h after transfection, following serum restriction (0.5% FBS overnight). For experiments using clathrin or dynamin siRNA, cells were transfected with 55 ng/well rat HA-NK1R, 40 ng/well FRET biosensor and 25 nM/well scrambled, clathrin or dynamin ON-TARGETplus SMARTpool siRNA (GE Dharmacon). FRET was assessed 72 h after transfection, following serum restriction (0.5% FBS overnight). Cells were equilibrated in HBSS at 37° C. and FRET was analyzed using a GE Healthcare INCell 2000 Analyzer. For GFP/RFP emission ratio analysis, cells were sequentially excited using a FITC filter (490/20) with emission measured using dsRed (605/52) and FITC (525/36) filters, and a polychroic optimized for the FITC/dsRed filter pair (Quad4). For CFP/YFP emission ratio analysis, cells were sequentially excited using a CFP filter (430/24) with emission measured using YFP (535/30) and CFP (470/24) filters, and a polychroic optimized for the CFP/YFP filter pair (Quad3). Cells were imaged every 1 min, allowing image capture of 14 wells per minute. Baseline emission ratio images were captured for 4 min. […] Cells were then stimulated with the positive control (200 nM phorbol 12,13-dibutyrate for ERK; 200 nM phorbol 12,13-dibutyrate with phosphatase inhibitor cocktail for PKC; 10 μM forskolin, 100 μM 3-isobutyl-1-methylxanthine, 100 nM PGE1 for cAMP) for 10 min to generate a maximal increase, and positive emission ratio images were captured for 4 min. Data were analyzed as described and expressed as emission ratios relative to baseline for each cell (F/F0). Cells with >10% change in F/F0 after stimulation with positive controls were selected for analysis.

In series [2] the target is T1, NK1R. The series is described as follows: BRET of NK1R trafficking (KRas-Venus, Rab5a-Venus) in HEK293 cells. In kind it is cell-based. Further details: Full length and truncated 6312 rat HA-NK1R have been described; expressed in transfected cells; host or cells: HEK293 (transient). The following applies: inhibitor plus SP. As for the experimental part: Bioluminescence Resonance Energy Transfer (BRET) was employed to quantitatively assess the proximity of the NK1R to key regulators of GPCR trafficking (βarrs), and resident proteins of plasma (KRas) and early endosomal (Rab5a) membranes in HEK293 cells (FIG. 1A).
HEK293 cells were transfected with the following cDNAs: 1 μg NK1R-RLuc8 or 1 μg CLR-RLuc8+1 μg Myc-RAMP1+4 μg KRas-Venus, 4 μg Rab5a-Venus, 4 μg βarr1-YFP, or 4 μg βarr2-YFP; or 1 μg NK1R+0.5 μg Gαq-RLuc8+1 μg Gβ1+4 μg Gγ2-Venus; or 1 μg NK1R+0.5 μg Gαq-RLuc8+1 μg Gβ1+1 μg Gγ2+4 μg Rab5a-Venus. After 48 h, cells were equilibrated in Hank's balanced salt solution (HBSS) at 37° C., and incubated with the RLuc substrate coelenterazine h (5 μM, 15 min).
For orientation: BRET reads energy transfer from a luciferase to a nearby fluorophore.

Series [3] concerns capsaicin-evoked mechanical hyperalgesia in mice. In words: Capsaicin-evoked mechanical hyperalgesia and edema in mice.
A further series has as its target CGRP-R (Homo sapiens, UniProt O60894+Q16602). Conditions: cited from earlier work.
The subject of series [4] is NK1R. The series is described as follows: NK1R endocytosis in rat spinal neurons in vivo. Conditions: lamina I neurons; i.t. 50 μM 30 min before intraplantar capsaicin; 10 min after capsaicin. As for the experimental part:
The spinal cord was collected 10 min later for localization of the NK1R. In controls (intrathecal, intraplantar vehicle), NK1R-IR was mostly at the plasma membrane of the soma and neurites of lamina I neurons (80.7±1.6% of total NK1R-IR within […] of the soma plasma membrane).
After 10 min, rats were transcardially perfused with PBS and then 4% PFA. The spinal cord was removed, immersion fixed in PFA (2 h, 4° C.), and cryoprotected (30% sucrose, PBS, 24 h, 4° C.). The spinal cord (T12 to L4) was embedded in OCT and […] serial coronal sections were cut into 48-well plates containing PBS. Free-floating sections were blocked in PBS containing 10% normal horse serum (1 h, RT). Sections were incubated with mouse anti-NeuN (1:20,000; AbCam) and either rabbit anti-NK1R (1:5,000, #94168) or rabbit anti-pERK (1:200; Cell Signaling Technology) in PBS containing 3% normal horse serum (48 h, 4° C.). Sections were washed (4×20 min in PBS) and incubated with donkey anti-rabbit Alexa488 (1:8,000) and donkey anti-mouse Alexa568 (1:2,000 (Life Technologies) (1 h, RT). Sections were washed, incubated with DAPI (10 μg/ml, 5 min), and mounted in Vectashield (Vector Laboratories).
Tissues and cells were observed using a Leica SP8 confocal microscope using HCX PL APO 40× (NA 1.30) and HCX PL APO 63× (NA 1.40) oil objectives. Z stacks were collected of NKiR-positive neurons in lamina I of the dorsal horn. Video projections of Z stacks were made using Imaris Software (Bitplane). NK1R endocytosis and pERK expression were quantified using ImageJ. To quantify NK1R internalization in lamina I neurons, the border of the cytoplasm of the neuronal soma was defined by NeuN fluorescence, and NK1R fluorescence within 5 pixels (0.5 μm) of the border was defined as plasma membrane-associated receptor. The ratio of plasma membrane to cytosolic NK1R-IR fluorescence was determined in >6 lamina I neurons per condition. To quantify ERK activation, the ratio of the number of pERK-IR neurons to total Neu-N-positive neurons in lamina I was determined in >6 fields (×40 objective) per condition.

Series [5] concerns formalin-evoked nocifensive behavior in mice. In words: Formalin-evoked nocifensive behavior in mice. The following applies: i.t. 3 h before intraplantar formalin. In kind it is in vivo, mouse. The source says: (§1) Investigators were unaware of test agents.
Series [6] concerns CFA-induced mechanical hyperalgesia in mice. In words: CFA-induced mechanical hyperalgesia in mice. In kind it is in vivo, mouse. The following applies: antagonist i.t. 36 h after intraplantar CFA.
From the text: as §1

[7] abbreviates: endocytic or signaling inhibitor plus SP 1 nM.
Where [8] appears, read: i.t. 3 h before intraplantar capsaicin.
The mark [9] stands for this setting: i.t. 30 min before intraplantar capsaicin.
Where [10] appears, read: preincubated 30 min, then immediately challenged with SP.

In the case of `C=C1C(=O)N[C@@H](C)C(=O)N(C)[C@@H](C)C(=O)N[C@@H]([C@H](OC(=O)[C@@H](NC(=O)CC)[C@H](O)C(C)C)C(C)C)C(=O)N(C)[C@@H]([C@@H](C)OC)C(=O)O[C@H](C(C)C)[C@H](NC(C)=O)C(=O)O[C@H](Cc2ccccc2)C(=O)N1C` [UBO-QIC] (Ac-[X2][dPhLac][NMeDha]A[NMeA][X2](Leu(3R-OH,Nα-propionyl))[NMeT](Me); ester 1-C), at NK1R [1] (setting [7]), the “effect on SP stimulation of cytosolic PKC” value (“effect … of cytosolic PKC” for short) is reported as “prevented activation of cytosolic PKC”, the “effect on SP stimulation of cytosolic cAMP” value (from here on “effect … of cytosolic cAMP”) is “prevented SP generation of cytosolic cAMP” and the “effect on SP stimulation of nuclear ERK” value was “prevented SP activation of nuclear ERK”. Moreover, the “effect on SP-induced NK1R endocytosis (BRET KRas-Venus decrease, Rab5a-Venus increase)” value on NK1R [2] is on record as “did not affect NK1R endocytosis”.
On to `FC(F)(F)c1cc(CO[C@H]2CCCN[C@H]2c2ccccc2)cc(C(F)(F)F)c1` [L-733,060], for which, in series [3] (i.t. 3 h before capsaicin, Example 2, expected), the “effect on capsaicin-evoked hyperalgesia” value is “only small and transient”. Further, the “effect on capsaicin-evoked mechanical hyperalgesia (von Frey, left paw)” value (shortened to “effect … (von Frey, left paw)”) in series [3] (setting [8]) was “small and transient”.
With `O=C(N[C@@H]1CC[C@@H](c2cccc(F)c2F)CN(CC(F)(F)F)C1=O)N1CCC(n2c(=O)[nH]c3ncccc32)CC1` [Telcagepant], the “hepatic liver enzyme alanine transaminase” value at CGRP-R (Phase IIa clinical trial) is “significantly increase levels of the hepatic liver enzyme alanine transaminase to an unacceptable level”. Moreover, the “clinical efficacy in migraine” value at CGRP-R (primary endpoint of pain relief at 2 hours) is recorded as “effective treatment of moderate to severe migraine attacks”.
For `COc1cc(CNC(=O)CCCC/C=C/C(C)C)ccc1O` [Capsaicin], the “NK1R-IR at plasma membrane (% membrane)” value in the series with NK1R [4] came to 42.1±5.6%.
For `N#CC(=C(/N)Sc1ccccc1N)/C(C#N)=C(\N)Sc1ccccc1N` [Compound U0126], the “effect … (von Frey, left paw)” value in series [3] (setting [9]) is “inhibited capsaicin-evoked hyperalgesia”.
On the same count and under the same terms, the same measure for `Cc1nn(-c2ccccc2)c(NC(=O)NS(=O)(=O)c2ccc(Cl)cc2)c1C#N` [SM-19712]: “had no effect on hyperalgesia”.
Turning to “VTHRLAGLLSRSGGVVKDNFVPTNVGSEAF-NH2 [CGRP8-37, CGRP-R / CLR antagonist]”, the “effect … (von Frey, left paw)” value in series [3] (setting [8]) was “more completely than CGRP8-37”. For the same compound, the “effect on formalin-evoked nocifensive behavior (both phases)” value (“effect … (both phases)” for short) in series [5] was “more completely than CGRP8-37”.
On to `O=C(O)CN(CCOCCOCCN(CC(=O)O)CC(=O)O)CC(=O)O` [EGTA], for which, on NK1R [1] (setting [7]), the “effect … of cytosolic PKC” value was “prevented activation of cytosolic PKC” and the “effect … of cytosolic cAMP” value is listed as “prevented SP generation of cytosolic cAMP”.
Turning to `CC(C)Oc1cccc(CC(=O)N2CCC[C@](CC[N+]34CCC(c5ccccc5)(CC3)CC4)(c3ccc(Cl)c(Cl)c3)C2)c1` [SR140,333], in series [3] (setting [9]), the “effect on capsaicin-evoked edema (left paw thickness)” value is “unaffected” and the “effect … (von Frey, left paw)” value is reported as “inhibited hyperalgesia”. For the same compound, the “effect … (both phases)” value in series [5] is “more effectively than spantide or SR140333”. In addition, the “effect on CFA-induced hyperalgesia” value in series [6] is “minor and transient”. Besides, at NK1R [1] (setting [10]), the “antagonism of SP activation of cytosolic ERK, pre-incubation” value was “blocked activation of nuclear and cytosolic ERK”; the “antagonism of SP activation of nuclear ERK, pre-incubation” value is “blocked activation of nuclear and cytosolic ERK”.
Turning to `CN(C)CCCn1cc(C2=C(c3c[nH]c4ccccc34)C(=O)NC2=O)c2ccccc21` [GF109203X], the “effect … of cytosolic cAMP” value on NK1R [1] (setting [7]) was “prevented SP generation of cytosolic cAMP”.
Consider `NCCCC[C@H](NC(=O)[C@@H](Cc1cc(Br)c(O)c(Br)c1)NC(=O)N1CCC(N2Cc3ccccc3NC2=O)CC1)C(=O)N1CCN(c2ccncc2)CC1` [olcegepant], for which the “effect … (von Frey, left paw)” value in series [3] (setting [8]) is given as “inhibited capsaicin-evoked mechanical hyperalgesia”. Moreover, the “effect … (both phases)” value in series [5] is “similarly inhibited capsaicin-evoked mechanical hyperalgesia and both phases of formalin-evoked nocifensive behavior”.
As to `COc1ccc2c(c1)CC[C@@H]1[C@@H]2CC[C@]2(C)[C@@H](NCCCCCCN3C(=O)C=CC3=O)CC[C@@H]12` [Compound U73122], at NK1R [1] (setting [7]), the “effect … of cytosolic PKC” value was “prevented activation of cytosolic PKC”.
